Laboratory results taken from patent publication US8778966B2, “Quinolinone derivatives as PARP and tank inhibitors” (Janssen Pharmaceutica, NV, priority 2007, dated 2014).

Columns and labels:
[1] = test system: HCT116 cells; assay: Antiproliferative activity, Alamar Blue assay, HCT116 cells; assay type: cell-based, human; details: Homo sapiens, HCT-116, HCT116 cells; read-out: HCT116 antiproliferative activity pIC50 (converted)
Procedure: Human colon carcinoma HCT116 cells obtained from the ATCC were cultured in McCoy's 5 A medium supplemented with 2 mM L-Glutamine, 50 μg/ml gentamicin and 10% heat inactivated fetal calf serum.
(§1) Resazurin was purchased from Aldrich (Prod. No. 199303). Potassium ferrocyanide, potassium ferricyanide, KH2PO4 and K2HPO4 were purchased from Sigma (Prod. Nos. P9387, P8131, P5655 and P8281, respectively).
(§2) Potassium Phosphate Buffer 0.1 M (PPB) was made as follows: 2.72 gram KH2PO4 and 13.86 gram K2HPO4 were dissolved in 500 ml milli-Q H2O, the pH was adjusted to pH 7.4 and the volume was brought to 1 litre with milli-Q H2O; the buffer was filter sterilised and stored at room temperature. Resazurin stock solution (PPB-A) was prepared fresh by dissolving 45 mg resazurin in 15 ml PBS. 30 mM potassium ferricyanide (PPB-B) was prepared by dissolving 0.987 gram potassium ferricyanide in 100 ml PPB. 30 mM potassium ferrocyanide (PPB-C) was prepared by dissolving 1.266 gram potassium ferrocyanide in 100 ml PPB.
(§3) Mixture of PPB-A, PPB-B and PPB-C was prepared by mixing equal volumes of the respective solutions. Resazurin work solution (herein termed “Alamar Blue” solution) was prepared by diluting said mixture 20×(vol/vol) in PPB and filter sterilising; the Alamar Blue solution could be kept at 4° C. for a maximum of 2 weeks.
(§4) For experiments in 384 wells plates the cells were seeded at a density of 4.5×10^3 cells/ml in Falcon 384-well culture plates (Life Technologies, Merelbeke, Belgium), black with clear bottom, in 45 μl culture medium. Cells were allowed to adhere to plastic for 24 hr. The tested compound was pre-diluted (1/50 in culture medium) and 5 μl pre-diluted compound was added to the wells. Following 4-day incubation, 10 μl of the Alamar Blue solution was added to each well and the cells were further incubated for 4 hrs (HCT116) or 24 hrs (PC-3) at 37° C. The fluorescence intensity was measured for each well on a Fluorescence plate reader (Fluorskan, Labsystems, 540 nm excitation and 590 nm emission)
(§5) The antiproliferative activity was calculated as percentage of remaining viable cells in treated versus control (untreated cells) conditions. Within an experiment, the result for each experimental condition is the mean of 3 replicate wells. When appropriate, the experiments were repeated to establish full concentration-response curves. When appropriate, IC50-values (concentration of the drug, needed to reduce cell growth to 50% of the control) were computed using probit analysis for graded data (Finney, D. J., Probit Analyses, 2nd Ed. Chapter 10, Graded Responses, Cambridge University Press, Cambridge 1962). Herein the effects of test compounds are expressed as pIC50 (the negative log value of the IC50-value) (see Table 2).

[2] = test system: PC3 cells; assay: EB1 Comet (microtubule disruption) assay; assay type: cell-based, human; details: Homo sapiens, PC-3, 1 h, 1 hour treatment, read-out: EB1 pLAC (converted)
Procedure: The Eb1 Comet assay relies on the detection of the Eb1 protein at the plus end of polymerizing microtubules (Mimori-Kiyosue, 2000) using indirect immunofluorescence. Disruption of microtubule dynamics through de-polymerization or stabilization results in a de-localization of Eb1 from the growing microtubule ends and this is visualized by the disappearance of Eb1 containing cytoplasmic foci.
Briefly, human prostate cancer PC3 cells obtained from the American Type Culture Collection were grown in 96-well plates (Greiner, cat. no. 655090) in HAM's F12 medium as recommended by the provider (ATCC). The cells were treated for 1 hour at 37° C. with compounds dissolved in DMSO (0.6% final DMSO concentration). The culture medium was then removed by aspiration and the cells were fixed by adding cold methanol (−20 C). After a 15 min. incubation at −20 C, the cells were washed twice with DPBS (Gibco) containing 0.5% Triton X-100. Mouse Eb1 antibody (BD Transduction Laboratories, cat. no. 610534) was added to the cells (1/250 dilution in DPBS containing 1% BSA) and incubated overnight at room temperature. The antibody was subsequently removed and the cells washed twice with DPBS, 0.5% Triton X-100. Secondary goat anti-mouse antibody conjugated to Alexa 488 fluorescent dye (Molecular Probes) was added at a 1/500 dilution in DPBS, 1% BSA and incubated for 1 hour at 37 C. The cells were washed twice with DPBS, 0.5% Triton X-100 and then DPBS containing 0.5% Triton X-100 and 1/5000 Hoechst 33342 (Molecular Probes) was added. Microscopy based Eb1 foci visualization was carried out using an IN Cell Analyser 1000 (Amersham Biosciences) using a 20× objective. Compound dependent microtubule disruption was visually determined by the disappearance in Eb1 foci. The lowest active concentration (LAC) was determined as the concentration where Eb1 foci were absent in at least 50% of the treated cells.

[3] = molecular target: T1, Human PARP-1 enzyme (Homo sapiens, UniProt P09874); assay: In vitro Scintillation Proximity Assay (SPA) for PARP-1 inhibitory activity; assay type: biochemical; details: read-out: in vitro SPA assay PARP-1 pIC50 (converted)
T1 construct: purchased Trevigen
Procedure: Compounds of the present invention were tested in an in vitro assay based on SPA technology (proprietary to GE healthcare).
In principle, the assay relies upon the well established SPA technology for the detection of poly(ADP-ribosyl)ation of biotinylated target proteins, i.e histones. This ribosylation is induced using nicked DNA activated PARP-1 enzyme and [^3H]-nicotinamide adenine dinucleotide ([^3H]-NAD^+) as ADP-ribosyl donor.
Histones (type II-A, supplier: Sigma) were biotinylated using the biotinylation kit of Amersham and stored aliquoted at −20° C. A stock solution of 100 mg/ml SPA poly(vinyl toluene) (PVT) beads (supplier: Amersham) was made in PBS. A stock solution of 61.6 nM [^3H]-NAD^+ was made by adding [^3H]-NAD^+ (0.1 mCi/ml, supplier: Perkin Elmer) to incubation buffer (50 mM Tris/HCl, pH 8; 0.2 mM DTT; 4 mM MgCl2). A solution of 4 mM NAD^+ (supplier: Sigma) was made. Human PARP-1 enzyme was obtained from Trevigen. Biotinylated histones and PVT-SPA beads were mixed and pre-incubated for 30 min. at room temperature. PARP-1 enzyme (concentration was lot dependent) was mixed with the nicked DNA and the mixture was pre-incubated for 30 min. at 4° C. Equal parts of this histones/PVT-SPA beads solution and PARP-1 enzyme/DNA solution were mixed and 75 μl of this mixture together with 1 μl of compound in DMSO and 25 μl of [^3H]-NAD^+ was added per well into a 96-well microtiterplate. The final concentrations in the incubation mixture were 2 μg/ml for the biotinylated histones, 2 mg/ml for the PVT-SPA beads, 0.25 μg/ml for the nicked DNA and between 0.1-0.2 μg/ml for the PARP-1 enzyme. After incubation of the mixture for 20 min. at room temperature, the reaction was terminated by adding 100 μl of 4 mM NAD^+ in water (final concentration 2 mM) and plates were mixed. The beads were sedimented by centrifugation (10 min, 800 rpm). and plates transferred to a TopCountNXT™ (Packard) for scintillation counting, values were expressed as counts per minute (cpm). For each experiment, controls (containing PARP-1 enzyme and DMSO without compound), a blank incubation (containing DMSO but no PARP-1 enzyme, no DNA or compound) and samples (containing PARP-1 enzyme, DNA and compound dissolved in DMSO) were run in parallel. All compounds tested were dissolved and eventually further diluted in DMSO. A dose-response curve was made wherein the compounds were tested at concentrations between 10^−5M and 3×10^−9M. In each test, the blank value was subtracted from both the control and the sample values. The control sample represented maximal PARP-1 enzyme activity. For each sample, the amount of cpm was expressed as a percentage of the mean cpm value of the controls. When appropriate, IC50-values (concentration of the drug, needed to reduce the PARP-1 enzyme activity to 50% of the control) were computed using linear interpolation between the experimental points just above and below the 50% level. Herein the effects of test compounds are expressed as pIC50 (the negative log value of the IC50-value). As a reference compound, 4-amino-1,8-naphthalimide was included to validate the SPA assay.

[4] = test system: PC-3 cells; assay: Antiproliferative activity, Alamar Blue assay, PC-3 cells; assay type: cell-based, human; details: Homo sapiens, PC-3, PC3 cells; read-out: PC3 antiproliferative activity pIC50 (converted)
Procedure: Human prostate cancer PC-3 cells obtained from the ATCC were cultured in HAM′S F12 medium supplemented with 1 mM Sodium Pyruvate, 1.5 g/L Sodium Bicarbonate, 50 μg/ml gentamicin, non-essential amino acids and 10% fetal calf serum.
as §1, §2, §3, §4, §5

T1 sequence (P09874 whole entry): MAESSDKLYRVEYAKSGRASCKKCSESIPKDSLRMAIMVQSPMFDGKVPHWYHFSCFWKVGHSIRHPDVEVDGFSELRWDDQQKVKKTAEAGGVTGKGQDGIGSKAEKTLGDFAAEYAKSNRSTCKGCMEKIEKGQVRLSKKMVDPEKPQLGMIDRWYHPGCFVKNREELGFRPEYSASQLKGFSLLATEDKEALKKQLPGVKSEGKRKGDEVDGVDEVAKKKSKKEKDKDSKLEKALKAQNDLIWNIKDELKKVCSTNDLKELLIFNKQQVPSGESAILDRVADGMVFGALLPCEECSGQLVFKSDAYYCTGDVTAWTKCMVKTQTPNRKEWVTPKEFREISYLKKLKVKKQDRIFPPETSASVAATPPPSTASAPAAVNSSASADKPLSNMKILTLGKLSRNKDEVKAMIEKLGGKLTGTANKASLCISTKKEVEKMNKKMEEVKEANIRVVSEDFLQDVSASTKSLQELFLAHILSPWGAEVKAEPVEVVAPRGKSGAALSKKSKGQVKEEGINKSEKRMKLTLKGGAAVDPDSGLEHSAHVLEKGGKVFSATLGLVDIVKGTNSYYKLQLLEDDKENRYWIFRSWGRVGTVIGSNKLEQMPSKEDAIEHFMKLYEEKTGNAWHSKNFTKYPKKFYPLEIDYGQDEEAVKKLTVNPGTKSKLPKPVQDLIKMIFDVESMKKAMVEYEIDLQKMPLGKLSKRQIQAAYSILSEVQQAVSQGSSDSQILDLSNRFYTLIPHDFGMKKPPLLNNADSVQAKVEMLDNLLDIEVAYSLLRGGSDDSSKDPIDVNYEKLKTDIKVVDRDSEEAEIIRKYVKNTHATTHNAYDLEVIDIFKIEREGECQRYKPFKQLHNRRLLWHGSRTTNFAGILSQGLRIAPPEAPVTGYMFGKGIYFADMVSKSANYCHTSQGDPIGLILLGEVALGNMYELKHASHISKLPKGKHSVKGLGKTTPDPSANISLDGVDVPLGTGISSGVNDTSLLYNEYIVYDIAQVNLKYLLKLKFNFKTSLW

melting point [°C] | IC50 [1] [nM] | IC50 [3] [nM] | IC50 [4] [nM] | SMILES | minimal effective concentration [2] [µM]
150 | – | – | – | CCc1cc2ccc(C(C)(C#N)Cc3cccc(CC#N)c3)cc2[nH]c1=O (centres unmarked) | –
174 | – | – | – | CCc1cc2ccc(C(C)(C#N)Cc3cccc(C#N)c3C)cc2[nH]c1=O (centres unmarked) [Compound 4] | –
153 | – | – | – | CCc1cc2ccc(C(C)(C#N)Cc3ccc(OCCCN4CCOCC4)c(C#N)c3)cc2[nH]c1=O (centres unmarked) [Compound 5] | –

More lines, now with the values behind:

SMILES | melting point [°C] | IC50 [1] [nM] | IC50 [3] [nM] | IC50 [4] [nM] | minimal effective concentration [2] [µM]
Cc1cc2ccc([C@](C)(C#N)[C@H]3CCCc4ccccc43)cc2[nH]c1=O [Compound 383] | – | 501 | 501 | 1260 | 3.16
Cc1cc2ccc(C(C)(C#N)Cc3cccc(C#CC(C)(C)O)n3)cc2[nH]c1=O (centres unmarked) [Compound 401] | – | 3980 | 398 | 5010 | 3.16
